# Laboratory results from the NIST ThermoML archive (doi:10.1021/je100253m).
# Numbers after ± are expanded uncertainties.
# Settings: Ring tensiometer
Compound,surface tension liquid-gas (293.15 K) [mN/m],surface tension liquid-gas (303.15 K) [mN/m],surface tension liquid-gas (313.15 K) [mN/m],surface tension liquid-gas (323.15 K) [mN/m],surface tension liquid-gas (333.15 K) [mN/m],surface tension liquid-gas (343.15 K) [mN/m]
CCCC[N+]1(C)CCCC1.O=S(=O)([N-]S(=O)(=O)C(F)(F)F)C(F)(F)F,34.93 ± 0.51,34.35 ± 0.51,33.65 ± 0.5,33.17 ± 0.49,32.61 ± 0.48,31.96 ± 0.48
CCCCCCCCCCCCCC[P+](CCCCCC)(CCCCCC)CCCCCC.O=S(=O)([N-]S(=O)(=O)C(F)(F)F)C(F)(F)F,30.75 ± 0.46,30.25 ± 0.46,29.52 ± 0.45,28.87 ± 0.44,28.21 ± 0.43,27.59 ± 0.42
CCCCn1cc[n+](C)c1C.O=S(=O)([N-]S(=O)(=O)C(F)(F)F)C(F)(F)F,37.4 ± 0.55,35.54 ± 0.52,33.83 ± 0.5,32.2 ± 0.48,30.49 ± 0.46,28.74 ± 0.44
CCC[n+]1cccc(C)c1.O=S(=O)([N-]S(=O)(=O)C(F)(F)F)C(F)(F)F,36 ± 0.53,35.53 ± 0.52,35.1 ± 0.52,34.53 ± 0.51,34.05 ± 0.5,33.55 ± 0.5
CCC[N+]1(C)CCCC1.O=S(=O)([N-]S(=O)(=O)C(F)(F)F)C(F)(F)F,32.54 ± 0.48,31.95 ± 0.48,31.5 ± 0.47,31 ± 0.46,30.47 ± 0.46,29.97 ± 0.45
"CCn1cc[n+](CC)c1.O=S(=O)([N-]S(=O)(=O)C(F)(F)F)C(F)(F)F [1,3-diethylimidazolium bis[(trifluoromethyl)sulfonyl]imide]",35.76 ± 0.52,35.37 ± 0.52,34.94 ± 0.51,34.56 ± 0.51,34.15 ± 0.5,33.7 ± 0.5
